Data published in patent US8481489B2, “GH secretagogues and uses thereof” (Theratechnologies Inc., priority 2003, dated 2013).
“And” between values parts separate entries of the source, which are not always exact repeats. Equal values may be shown once. “Also recorded” adds a separate entry of the source. Read-outs that look alike come from different tables or passages of the source. Marks after values point to notes of the source that are not given here.

Tests used:
[1] = system: patients exhibiting sleep maintenance insomnia; assay: Continuous Performance Test (CPT), 14-day study in sleep maintenance insomnia; format: in vivo, human; settings: 14 days
Protocol: Patients were selected based on the Pittsburgh Sleep Quality Index (Score ≧5), the Walters Criteria for Sleep Maintenance Insomnia, and the Beck Questionnaire (Score ≦17). The primary exclusion criteria were other primary sleep disorders and the use of any products affecting sleep or vigilance in the 30 days prior to entering the study.
The study was a randomized, double-blind, placebo-controlled, parallel group and multicenter evaluation of two doses of TH9507 (0.1 mg and 1 mg) administered daily by subcutaneous injection at bedtime for 14 consecutive days. To evaluate vigilance and the performance in the morning, patients underwent a battery of cognitive tests including the Continuous Performance Test (CPT) at baseline and at the end of treatment period.
The CPT has been described in the literature as a measure of consistency in responding and ability to sustain attention over time (Aleman A, et al., J Clin Endocrinol Metab 1999 84(2):471-475). This test required subjects to press space bar each time the letter “A” was followed by “X”. Omission and commission errors, and Mean Reaction Time of correct responses were analyzed.

[2] = system: healthy subjects exhibiting age-related sleep impairment; assay: P300 event-related potential test, 7-day cross-over study; format: in vivo, human; settings: 1 mg daily for 7 days
Protocol: In this study, TH9507 was administered daily for 7 days in a cross-over design. […] Changes from Baseline to day 9 in the Pz amplitude of the Evoked Related Potential (P300) observed in the placebo and 1 mg group were as follows: Placebo, −15%; 1 mg, +55%, P=0.0114, as analyzed by an ANOVA model.

[3] = Safety profile in the two vigilance studies; format: in vivo, human
[4] = system: antigen-specific proliferative T cell response; format: in vivo, human; settings: 2 mg SC daily 8 weeks; week 0 to week 20; Panama, New Caledonia, Victoria
[5] = system: A/New Caledonia/20/99, A/Panama/2007/99, B/Victoria/504/2000 antigens; assay: Influenza antibody titers by hemaglutination inhibition assay in elderly subjects; format: in vivo, human
IGF-1 [6] = assay: Mean IGF-1 values, influenza vaccination study; format: in vivo, human; settings: 1 and 2 mg SC daily, whole 8-week treatment period
Protocol: Eighty seven (87) subjects aged 75 years in average were included in a double-bind, randomized, placebo-controlled study. TH9507 or a placebo was administered at a daily dose of 1 or 2 mg by subcutaneous injection for 8 weeks. Follow-up assessments were conducted for 12 weeks after the end of the treatment period. At week 4, in the middle of the treatment period, subjects received the commercial Canadian influenza vaccine (Vaccine Fluviral® S/F, Shire, Montreal, Canada) containing 15 μg each of A/New Caledonia/20/99, A/Panama/2007/99, B/Victoria/504/2000 antigens.
Values returned to baseline following cessation of treatment.

[7] = TH9507 PK profile, 7-day study in healthy men; format: in vivo, human
Protocol: The study used a randomized, double-blind, placebo-controlled design and was conducted in healthy men, aged 50 to 60 years old. Subjects (8 per group) were injected S.C. once a day for 7 consecutive days with placebo, 0.5, 1 or 2 mg of TH9507. Circulating IGF-1 levels were measured on Days 1 to 7. The 12 hour GH response and TH9507 PK profile were determined on Day 1 and 7.

[8] = system: type II diabetic patients; assay: Glucose control in type II diabetic patients; format: in vivo, human; settings: for glycosylated hemoglobin (HbA1c) levels: Week 12
Protocol: (§1) A double-blind placebo-controlled study was conducted in 53 type II diabetic patients (age=61±7 [SD]; 34% female) on stable antidiabetic medication (26% on insulin). Patients were randomized to parallel groups to receive daily subcutaneous administration of a placebo, 1 mg or 2 mg TH9507, respectively.
Clinically relevant changes in antidiabetic medications occurred with a similar incidence in the three treatment groups.

IGF-1 [9] = assay: IGF-1 levels in type II diabetic patients; format: in vivo, human; settings: end of 12-week treatment period
Protocol: as §1

[10] = system: HIV-infected patients with abdominal fat accumulation; settings: for CD4, Δ: change from baseline, Week 12, mean (SD)
Protocol: (§2) Design: Randomized, placebo-controlled, multi-center, dose ranging (placebo, 1 mg or 2 mg SC QD), parallel group, 12-week study
(§3) Biochemical parameters including insulin-like growth factor-I, glucose, insulin, lipid profile (cholesterol, HDL, LDL, triglyceride, non HDL and the ratio of cholesterol:HDL), free fatty acids, HbA1C, IGFBP-3, and bone markers (serum osteocalcin and NTX-1), CD4, viral load, and a pregnancy test for female subjects were determined in the fasting state.
(§4) Clinical laboratory testing was performed by a central lab. […] NTX (N-terminal telopeptide of type I collagen; a bone resorption marker) was measured by ELISA using a commercially available kit (Osteomark™, Ostex International Inc., Seattle, Wash.). Osteocalcin was measured using a commercially available enzymatic immunoassay kit (Metra™ osteocalcin, Quidel Corporation, San Diego, Calif.). CD4 and viral load were performed by the individual site labs by routine methodology.

IGF-1 [11] = settings: daily 1 and 2 mg doses; reference (14); cited from earlier work
[12] = system: type II diabetic patients; settings: patients with Type II DM, daily dose up to 2 mg; reference (15); cited from earlier work
[13] = system: HIV-infected patients with abdominal fat accumulation; assay: Lipid parameters, HIV lipodystrophy study; settings: mean (SD); for Chol:HDL, Δ / HDL, Δ / LDL, Δ / NONHDL Cholesterol, Δ / Total Cholesterol, Δ / Triglycerides, Δ: change from baseline, Week 12; for Triglyceride levels change / ratio of cholesterol to HDL change: last observation values
Protocol: as §2
(§5) At the baseline visit, anthropometric measurements were obtained. […] Biochemical parameters including insulin-like growth factor-I, glucose, insulin, lipid profile (cholesterol, HDL, LDL, triglyceride, non HDL and the ratio of cholesterol:HDL), free fatty acids, HbA1C, IGFBP-3, and bone markers (serum osteocalcin and NTX-1), CD4, viral load, and a pregnancy test for female subjects were determined in the fasting state. In addition, insulin and glucose response to a 75 gram standard glucose challenge were assessed and a quality of life questionnaire was administered.
(§6) Clinical laboratory testing was performed by a central lab. Serum IGF-1 was measured after acid-ethanol extraction using the Esoterix RIA kit (Esoterix Inc., Calabasas Hill, Calif.), with a sensitivity of 10 ng/mL. Intra- and inter-assay coefficients of variation were 4.6-20% and 9-10%, respectively. Serum IGFBP-3 was measured using the Esoterix RIA kit (Esoterix Inc., Calabasas Hill, Calif.) with a sensitivity of 0.3 mg/mL. Intra- and inter-assay coefficients of variation were 5.1-13% and 5.5-17%, respectively. HDL, LDL, total cholesterol, triglycerides and FFA were determined by enzymatic calorimetric assay. Glucose was measured by enzymatric test (Gluco-Quant®, Roche diagnostics, Indianapolis, Ind.). HbA1c was determined by chromatography.
(§7) Other endpoints included IGF-I, lipid parameters, glucose and insulin, CD4, viral load, bone markers, and quality of life. A sample size of 20 patients/group was planned to assess a statistically significant change of 10% or more in intra-group analyses. The planned dropout rate was 25% and therefore 60 patients were enrolled into the study. Baseline data are compared between the groups by F-test based on ANOVA for continuous variables and Chi-Square test for categorical variables. Change over time between groups is compared by ANOVA or the Chi-Square test. Where appropriate, data were rank transformed prior to analysis. Changes within each group are determined by t-test. The ITT (intent to treat) population is defined as all subjects who received at least one dose of the study treatment. Descriptive statistics and analyses for all efficacy and safety analyses are performed on the ITT population. End of study, 12 week, data are used to calculate changes in body composition. For biochemical indices, the last observation available is used to calculate change. Imputation for missing data is not performed. For body composition, end of study data are used to calculate change. Interim analyses were not performed. Results are mean (SD) unless otherwise noted. All statistical tests were performed with a two-sided Type I error level of 0.05.

IGF-1 and IGFBP-3 = assay: Serum IGF-1 and IGFBP-3 (RIA), HIV lipodystrophy study; settings: change from baseline, Week 12, mean (SD)
Protocol: as §2, §5, §6, §7

[14] = system: HIV-infected patients with abdominal fat accumulation; assay: Bone turnover markers (osteocalcin, NTX), HIV lipodystrophy study; settings: for NTX, Δ / Osteocalcin, Δ: change from baseline, Week 12, mean (SD)
Protocol: as §2, §3, §4

[15] = system: HIV-infected patients with abdominal fat accumulation; assay: Abdominal VAT and SAT by cross-sectional CT, HIV lipodystrophy study; settings: for SAT, Δ / VAT, Δ: change from baseline, Week 12, mean (SD)
Protocol: as §2
Patients: 61 HIV-infected patients (BMI 28±3 [SD] kg/m^2, 28% diabetic or glucose intolerant) with increased waist circumference (102 cm±8 [SD]) and waist/hip (1.0±0.1 [SD])
At the baseline visit, anthropometric measurements were obtained. Total body lean and fat mass as well as regional fat mass in the trunk and extremities were assessed by DEXA. Abdominal subcutaneous and visceral fat area and the ratio of VAT to SAT were determined by cross-sectional CT at L4-L5.
Whole body and regional DEXA (dual energy X-ray absorptiometry) and cross-sectional abdominal CT scans were performed at the individual study sites based on previously established protocols and were standardized across sites. Digitized images were sent to a central reading center, St. Lukes Roosevelt Hospital, for analysis by independent experts without knowledge of treatment assignment. Each site was given a procedure manual to follow in obtaining the body composition data and was certified in the proper technique. For the CT scans, parameters were standardized as follows: Tube Voltage=120 kV, Tube Current=250 mA, Exposure=375 mAs, matrix 512×512. DFOV was set to include the entire slice into the field of view. For the DEXA scans total body scans were performed with analysis of lean body mass, total fat mass, and regional fat mass in the trunk and extremities as previously described (16).
Body composition endpoints included trunk fat and trunk to limb fat ratio by DEXA and VAT and VAT:SAT by CT scan. […] Baseline data are compared between the groups by F-test based on ANOVA for continuous variables and Chi-Square test for categorical variables. Change over time between groups is compared by ANOVA or the Chi-Square test. Where appropriate, data were rank transformed prior to analysis. Changes within each group are determined by t-test. The ITT (intent to treat) population is defined as all subjects who received at least one dose of the study treatment. Descriptive statistics and analyses for all efficacy and safety analyses are performed on the ITT population. End of study, 12 week, data are used to calculate changes in body composition. […] Imputation for missing data is not performed. For body composition, end of study data are used to calculate change. […] Results are mean (SD) unless otherwise noted. All statistical tests were performed with a two-sided Type I error level of 0.05.

Compound: CC/C=C/CC(=O)N[C@@H](Cc1ccc(O)cc1)C(=O)N[C@@H](C)C(=O)N[C@@H](CC(=O)O)C(=O)N[C@@H](C)C(=O)N[C@H](C(=O)N[C@@H](Cc1ccccc1)C(=O)N[C@H](C(=O)N[C@@H](CC(N)=O)C(=O)N[C@@H](CO)C(=O)N[C@@H](Cc1ccc(O)cc1)C(=O)N[C@@H](CCCNC(=N)N)C(=O)N[C@@H](CCCCN)C(=O)N[C@H](C(=O)N[C@@H](CC(C)C)C(=O)NCC(=O)N[C@@H](CCC(N)=O)C(=O)N[C@@H](CC(C)C)C(=O)N[C@@H](CO)C(=O)N[C@@H](C)C(=O)N[C@@H](CCCNC(=N)N)C(=O)N[C@@H](CCCCN)C(=O)N[C@@H](CC(C)C)C(=O)N[C@@H](CC(C)C)C(=O)N[C@@H](CCC(N)=O)C(=O)N[C@@H](CC(=O)O)C(=O)N[C@H](C(=O)N[C@@H](CCSC)C(=O)N[C@@H](CO)C(=O)N[C@@H](CCCNC(=N)N)C(=O)N[C@@H](CCC(N)=O)C(=O)N[C@@H](CCC(N)=O)C(=O)NCC(=O)N[C@@H](CCC(=O)O)C(=O)N[C@@H](CO)C(=O)N[C@@H](CC(N)=O)C(=O)N[C@@H](CCC(N)=O)C(=O)N[C@@H](CCC(=O)O)C(=O)N[C@@H](CCCNC(=N)N)C(=O)NCC(=O)N[C@@H](C)C(=O)N[C@@H](CCCNC(=N)N)C(=O)N[C@@H](C)C(=O)N[C@@H](CCCNC(=N)N)C(=O)N[C@@H](CC(C)C)C(N)=O)[C@@H](C)CC)C(C)C)[C@@H](C)O)[C@@H](C)CC [TH9507, (hexenoyl trans-3)hGRF(1-44)NH2]
- Mean Reaction Time of the CPT, decrease from baseline ([1]; 0.1 mg SC daily at bedtime, baseline to day 9): 45.85 ms
- Mean Reaction Time of the CPT vs placebo ([1]; 1 mg SC daily at bedtime): No significant effect
- Change from Baseline to day 9 in the Pz amplitude of the Evoked Related Potential (P300) [2]: +55%
- reactions at the site of injection ([3]; 1 mg, insomnia study, vs placebo): higher incidence
- safety profile ([3]; both vigilance studies): comparable to that of the placebo
- mean AUC of antigen-specific proliferative T cell response vs placebo [4]: statistically higher
- percentage of subjects with protective antibody level ([5]; Panama and New Caledonia strains): No statistical difference
- proportion of patients achieving a protective antibody level vs placebo ([5]; Victoria antigen, statistically significant at 2 mg, weeks 6-20): increased
- mean IGF-1 values vs baseline (IGF-1 [6]): dose-related increase
- Cmax and AUC parameters ([7]; 0.5, 1, 2 mg SC): increased in function of the dose administered
- half-life ([7]; male, human, in vivo, SC, healthy men): 2 to 5 h
- glycosylated hemoglobin (HbA1c) levels ([8]; 1 mg): a decrease
- glycosylated hemoglobin (HbA1c) levels ([8]; 2 mg): no change
- insulin relative response to an oral glucose tolerance test, between groups ([8]; placebo, 1 mg, 2 mg, treatment period): No statistically significant differences
- IGF-1 levels (IGF-1 [9]): dose-related increase
- CD4, Δ ([10]; 1 mg SC QD): 24.4 (147.41) cells/mm^3
- CD4, Δ ([10]; 2 mg SC QD): −23.2 (70.7) cells/mm^3
- CD4 count and viral load ([10]; in vivo): did not change
- IGF-I (IGF-1 [11]): increase IGF-I to the physiological range seen in younger adults
- overall glycemic control [12]: not shown to aggravate overall glycemic control
- Chol:HDL, Δ ([13]; 1 mg SC QD): −0.3 (0.6)
- HDL, Δ ([13]; 1 mg SC QD): 0.0 (0.2) mmol/L
- LDL, Δ ([13]; 1 mg SC QD): 0.1 (0.8) mmol/L
- NONHDL Cholesterol, Δ ([13]; 1 mg SC QD): −0.4 (1.5) mmol/L
- Total Cholesterol, Δ ([13]; 1 mg SC QD): −0.4 (1.7) mmol/L
- Triglycerides, Δ ([13]; 1 mg SC QD): −1.1 (4.4) mEq/L
- Triglyceride levels change ([13]; 1 mg SC QD): −0.9 (4.2)
- ratio of cholesterol to HDL change ([13]; 1 mg SC QD): −0.3 (0.7)
- Chol:HDL, Δ ([13]; 2 mg SC QD): −0.3 (0.7)
- HDL, Δ ([13]; 2 mg SC QD): 0.1 (0.1)* mmol/L
- LDL, Δ ([13]; 2 mg SC QD): 0.2 (0.7) mmol/L
- NONHDL Cholesterol, Δ ([13]; 2 mg SC QD): −0.1 (0.7) mmol/L
- Total Cholesterol, Δ ([13]; 2 mg SC QD): −0.1 (0.8) mmol/L
- Triglycerides, Δ ([13]; 2 mg SC QD): −0.9 (1.3)* mEq/L
- Triglyceride levels change ([13]; 2 mg SC QD): −0.9 (1.2)
- ratio of cholesterol to HDL change ([13]; 2 mg SC QD): −0.3 (0.6)
- IGF-1, Δ (IGF-1 and IGFBP-3; 1 mg SC QD): 87 (67) ng/mL and 87.5 (66.9)* ng/mL
- IGFBP-3, Δ (IGF-1 and IGFBP-3; 1 mg SC QD): 0.6 (0.7)* Mg/L
- IGF-1, Δ (IGF-1 and IGFBP-3; 2 mg SC QD): 123 (79) ng/mL and 122.6 (79.1)* ng/mL
- IGFBP-3, Δ (IGF-1 and IGFBP-3; 2 mg SC QD): 0.6 (0.5)* Mg/L
- NTX, Δ ([14]; 1 mg SC QD): 4.5 (24.9) nMBCE/mM
- Osteocalcin, Δ ([14]; 1 mg SC QD): 1.5 (4.8) ng/mL
- NTX ([14]; 2 mg SC QD, 12 weeks): no changes
- Osteocalcin within group ([14]; 2 mg SC QD, 12 weeks): increased significantly
- NTX, Δ ([14]; 2 mg SC QD): −0.5 (27.7) nMBCE/mM
- Osteocalcin, Δ ([14]; 2 mg SC QD): 3.0 (2.8)* ng/mL
- Visceral fat (VAT) change ([15]; 1 mg SC QD, 12 weeks): −3.6%
- SAT, Δ ([15]; 1 mg SC QD): 6.8 (21.2) cm^2
- VAT, Δ ([15]; 1 mg SC QD): −11.9 (28.7) cm^2
- Visceral fat (VAT) change ([15]; 2 mg SC QD, 12 weeks): −15.7%
- SAT, Δ ([15]; 2 mg SC QD): 4.4 (19.8) cm^2
- VAT, Δ ([15]; 2 mg SC QD): −21.5 (27.9)* cm^2
- Visceral fat decrease within group ([15]; 2 mg, over 3 months): more than 15%
- subcutaneous fat (SAT) ([15]; 1 and 2 mg SC QD, 12 weeks, between or within groups): preserved; also recorded: did not change significantly
